In patent EP0491061A1, “Use of enalapril and perindopril as prolactin-lowering medicament” (Weth, Gosbert Dr. med., Dr. rer. nat., priority 1990, dated 1992):
Entries after “also recorded” stand apart in the source; their conditions may differ.

What was measured:
Dopamin = assay: Plasma dopamine determination (method of Weth) in patients with circulatory disorders after dosing; type: in vivo, Patienten; conditions: for Dopamin MW: mean of 12 patients
Excerpt: Die durch die erfindungsgemäß verwendeten N-(Aminoacyl)-aminosäuren erhöhte Freisetzung von Dopamin bei gleichzeitiger Senkung des Prolaktins konnte durch pharmakologische Tests veranschaulicht und bewiesen werden. Die Dopaminbestimmung wurde nach G. Weth, "Das Verhalten der Neurotransmitter....", Dissertation, Würzburg, 1987, S. 123-138, durchgeführt. Die Bestimmung von Prolaktin wurde radioimmunologisch nach den Methoden von P. Hwang, H. Guyda, H. Friesen, Proc. Nat. Sci. (USA) 1971,68-8, S.1902-06 durchgeführt.
Für die Untersuchungen wurden 2x12 Patienten (Alter 75±10 Jahre) herangezogen, die unter Durchblutungsstörungen, sowohl peripheren als auch zentralen, litten. Bei diesen Patienten wurden sowohl vor der Gabe von Enalaprilhydrogenmaleat, als auch 15, 30, 60, und 120 Minuten nach der Gabe von Enalaprilhydrogenmaleat Dopamin und Prolaktin bestimmt.
Die Patienten bekamen sublingual […] Enalaprilhydrogenmaleat verabreicht (RR zwischen 100/70 und 170/110; MW 130/90 mm Hg).
Die Bestimmung der Dopamin- und Prolaktinwerte wurde wie folgt vorgenommen. In Zeitabschnitten von 15, 30, 60 und 120 Minuten wurden dem Patienten je 5 ml Blut entnommen und in speziell präparierten Vakuum-Behältern, die Glutathion und EDTA enthielten gegeben. Das Blut wird sofort auf 2°C abgekühlt und bei 2°C zentrifugiert. Das überstehende Blutplasma wurde bis zur Dopamin- und Prolaktinbestimmung bei minus 80 °C tiefgefroren.
Die Dimensionsangaben betragen für Dopamin pg/ml bzw. ng/l und für Prolaktin ng/ml.

Prolaktin = assay: Plasma prolactin determination by radioimmunoassay (method of Hwang et al.) in patients after dosing; type: in vivo, Patienten; conditions: for Prolaktinsenkung: average weight 60 kg

CCOC(=O)[C@H](CCc1ccccc1)N[C@@H](C)C(=O)N1CCC[C@H]1C(=O)O [Enalaprilhydrogenmaleat]
Dopamin MW (Dopamin; 15 min after 20 mg Enalaprilhydrogenmaleat, plasma): 143 pg/mL | Dopamin MW (Dopamin; 30 min after 20 mg Enalaprilhydrogenmaleat, plasma): 188 pg/mL | Dopamin MW (Dopamin; 60 min after 20 mg Enalaprilhydrogenmaleat, plasma): 253 pg/mL | Dopamin MW (Dopamin; 90 min after 20 mg Enalaprilhydrogenmaleat, plasma): 230 pg/mL | Dopamin MW (Dopamin; 120 min after 20 mg Enalaprilhydrogenmaleat, plasma): 182 pg/mL | Höhepunkt des Dopaminanstiegs (time) (Dopamin; Fig. 1, 20 mg sublingual, average weight 60 kg, plasma): 60 min | Anstieg des Dopamins (Dopamin; in words, 15 min after sublingual dosing): hochsignifikanten Anstieg; also recorded: signifikanten Anstieg | Dopamin MW (Dopamin; time 0 (before dosing), 20 mg Enalaprilhydrogenmaleat, plasma): 105 pg/mL | Prolaktin MW (Prolaktin; 15 min after 20 mg Enalaprilhydrogenmaleat, plasma, mean of 12 patients): 15,4 ng/ml | Prolaktin MW (Prolaktin; 30 min after 20 mg Enalaprilhydrogenmaleat, plasma, mean of 12 patients): 14,3 ng/ml | Prolaktin MW (Prolaktin; 60 min after 20 mg Enalaprilhydrogenmaleat, plasma, mean of 12 patients): 11,9 ng/ml | Prolaktin MW (Prolaktin; 90 min after 20 mg Enalaprilhydrogenmaleat, plasma, mean of 12 patients): 10,8 ng/ml | Prolaktin MW (Prolaktin; 120 min after 20 mg Enalaprilhydrogenmaleat, plasma, mean of 12 patients): 10,2 ng/ml | Senkung des Prolaktins (Prolaktin; in words, 30 min after sublingual dosing): deutlichen Senkung | Prolaktinsenkung (Prolaktin; in words, Fig. 2, 30 min after 20 mg oral): signifikante | Prolaktinsenkung (Prolaktin; in words, Fig. 2, 60 min after 20 mg oral): hochsignifikante Prolaktinsenkung | Abfall von Prolaktin (Prolaktin; in words, after 25 mg (so in the source)): signifikanten Abfall | Prolaktin MW (Prolaktin; time 0 (before dosing), 20 mg Enalaprilhydrogenmaleat, plasma, mean of 12 patients): 16,2 ng/ml

CCC[C@H](N[C@@H](C)C(=O)N1[C@H](C(=O)O)C[C@@H]2CCCC[C@@H]21)C(=O)OCC [Perindopril]
Prolaktin MW (Prolaktin; 30 min after 20 mg Perindopril oral, mean of 12 patients (average weight 60 kg)): 12,3 pg/ml | Prolaktin im Blutplasma (Prolaktin; Fig. 3, 30 min after 20 mg oral): 12 ng/mL | Prolaktin im Blutplasma (Prolaktin; Fig. 3, 90 min after 20 mg oral): 7 ng/mL | Anfangskonzentration Prolaktin (Prolaktin; Fig. 3, before 20 mg oral, blood plasma): 15 ng/mL
